Tested on: Sphaerotheca fuliginea
Assay: Test 1: control effect against powdery mildew on cucumber (control index)
Assay type: in vivo, Sphaerotheca fuliginea on cucumber (variety: SAGAMI HANJIRO)
Details: individual active compound, test concentration 2 ppm
Text: The expected efficacies of the combinations of the individual active compounds can be determined using Colby's formula, which is described below [Colby, S. R. “Calculating synergistic and antagonistic responses of herbicide combinations,” Weeds 15, 20-22 (1967)]: Colby's formula: E=A+B−(A×B/100) E is the predicted efficacy (control index) with reference to the untreated control when using the mixture of the active compound X at the concentration x and the active compound Y at the concentration y; A is the efficacy (control index) with respect to the untreated control when using the active compound X at the concentration x; B is the efficacy (control index) with respect to the untreated control when using the active compound […] at the concentration y.
Potted young seedlings of cucumber (variety: SAGAMI HANJIRO; in two-leaf stage) were sprayed with invention compounds formulated in accordance with Preparations and the existing antimicrobial active compounds listed in Table 3 (all compounds are identified by associated letters of the alphabet) after they were diluted with water to predetermined concentrations so that they would serve as active compounds; a spray gun was used to provide a spray rate of 15 ml per pot. After air-drying, the seedlings were inoculated with conida of Sphaerotheca fuliginea by spraying a suspension of the conida. Thereafter, the seedlings were cultivated for 14 days in a greenhouse and the percentage of diseased area was investigated for each leaf; based on the result of this investigation, the control index was calculated using the following formula: Control index={(percentage of diseased area on the untreated control−percentage of diseased area on treated sample)/percentage of diseased area on the untreated control}×100
`CCCCCCCCCCCCc1ccc(S(=O)(=O)O)cc1.CCCCCCCCCCCCc1ccc(S(=O)(=O)O)cc1.CCCCCCCCCCCCc1ccc(S(=O)(=O)O)cc1.NC(N)=NCCCCCCCCNCCCCCCCCN=C(N)N` [Ab: Iminoctadine albesilate, iminoctadine albesilate] gave a Control index of 41.

Tested on: not given
Assay: not given
Details: not given
Work on `CC(C)[Si](C#CCCNc1ncnc2sccc12)(C(C)C)C(C)C` yielded a melting point of 196 to 198 °C. In the case of `CC(C)(C)[Si](C)(C)C#CCCNc1ncnc2sccc12`, the melting point is reported as 190 to 192 °C. Compound `C(#Cc1cncs1)CCNc1ncnc2sccc12` [Compound No. 61] has a melting point of 156 to 158 °C. Work on `C(#Cc1csc(-c2ccccc2)n1)CCNc1ncnc2sccc12` [Compound No. 76, 4-[4-(2-Phenylthiazol-4-yl)-3-butynylamino]thieno[2,3-d]pyrimidine] yielded a melting point of 134 to 136 °C. For `C(#Cc1ccccc1)CC(Nc1ncnc2ccccc12)c1ccccc1` (centres unmarked) [Compound No. 301, 4-[(1,4-diphenyl-3-butynyl)amino]quinazoline], the melting point was 141 to 143 °C. Compound `Cc1cccc(C#CCCNc2ncnc3sccc23)c1` [compound 18] has a melting point of 120 to 123 °C. `COc1ccc(C#CCCNc2ncnc3sccc23)cc1OC` [compound 24] gave a melting point of 182 to 184 °C. Compound `FC(F)(F)c1cccc(C#CCCNc2ncnc3sccc23)c1` [compound 26] has a melting point of 123 to 125 °C. `FC(F)(F)c1cc(C#CCCNc2ncnc3sccc23)cc(C(F)(F)F)c1` [compound 28] showed a melting point of 163 to 166 °C. Compound `COC(=O)c1cccc(C#CCCNc2ncnc3sccc23)c1` [compound 30] has a melting point of 163 to 166 °C. With `O=[N+]([O-])c1cccc(C#CCCNc2ncnc3sccc23)c1` [compound 39] the melting point was 171 to 172 °C. With `O=[N+]([O-])c1ccc(C#CCCNc2ncnc3sccc23)cc1` [compound 40] the melting point was 184 to 185 °C. In the case of `Fc1ccc(C#CCCNc2ncnc3sccc23)c(F)c1` [compound 41], the melting point is reported as 177 to 178 °C. `Fc1cccc(F)c1C#CCCNc1ncnc2sccc12` [compound 42] showed a melting point of 179 to 181 °C. `Fc1cc(C#CCCNc2ncnc3sccc23)cc(F)c1F` [compound 43] gave a melting point of 158 to 159 °C. In the case of `C(#Cc1cccnc1)CCNc1ncnc2sccc12` [compound 56], the melting point is reported as 138 to 140 °C. In the case of `C(#Cc1ccncc1)CCNc1ncnc2sccc12` [compound 57], the melting point is reported as 140 to 141 °C. `Cc1cc(C)nc(C#CCCNc2ncnc3sccc23)n1` [compound 59] showed a melting point of 112 to 113 °C. With `C(#Cc1nccs1)CCNc1ncnc2sccc12` [compound 62] the melting point was 128 to 129 °C. With `C(#Cc1cscn1)CCNc1ncnc2sccc12` [compound 63] the melting point was 174 °C. With `Cc1scnc1C#CCCNc1ncnc2sccc12` [compound 65] the melting point was 148 to 150 °C. With `Cc1nc(C#CCCNc2ncnc3sccc23)cs1` [compound 66] the melting point was 160 to 161 °C. With `OCc1nc(C#CCCNc2ncnc3sccc23)cs1` [compound 70] the melting point was 193 °C. For `CC(=O)OCc1nc(C#CCCNc2ncnc3sccc23)cs1` [compound 73], the melting point was 128 to 129 °C. With `C(#Cc1csc(-c2ccco2)n1)CCNc1ncnc2sccc12` [compound 77] the melting point was 53 to 55 °C. For `C(#Cc1csc(-c2ccoc2)n1)CCNc1ncnc2sccc12` [compound 78], the melting point was 140 to 142 °C. For `C(#Cc1csc(-c2ccsc2)n1)CCNc1ncnc2sccc12` [compound 80], the melting point was 55 to 56 °C. `C(#Cc1csc(-c2cccnc2)n1)CCNc1ncnc2sccc12` [compound 81] gave a melting point of 175 to 177 °C. `C=C(C#CCCNc1ncnc2ccccc12)CO` [compound 92] showed a melting point of 139 °C. For `C(#Cc1ccccc1)CCNc1ncnc2ccccc12` [compound 96], the melting point was 120 to 122 °C. `C=C(C)CCc1ccccc1C#CCCNc1ncnc2ccccc12` [compound 105] gave a melting point of 92 to 94 °C. `CSc1cccc(C#CCCNc2ncnc3ccccc23)c1` [compound 116] showed a melting point of 141 to 142 °C. Work on `CCOc1ccccc1C#CCCNc1ncnc2ccccc12` [compound 118] yielded a melting point of 119 to 120 °C. Work on `CS(=O)(=O)c1ccc(C#CCCNc2ncnc3ccccc23)cc1` [compound 120] yielded a melting point of 164 to 165 °C. In the case of `CCOC(=O)c1ccc(C#CCCNc2ncnc3ccccc23)cc1` [compound 129], the melting point is reported as 137 to 138 °C. Compound `OCc1cccc(C#CCCNc2ncnc3ccccc23)c1` [compound 131] has a melting point of 113 to 115 °C. With `OCc1ccc(C#CCCNc2ncnc3ccccc23)cc1` [compound 132] the melting point was 69 to 71 °C. In the case of `OC(c1ccccc1C#CCCNc1ncnc2ccccc12)C(F)(F)F` (centres unmarked) [compound 138], the melting point is reported as 183 to 187 °C. In the case of `COCc1cc(F)c(F)cc1C#CCCNc1ncnc2ccccc12` [compound 146], the melting point is reported as 121 to 125 °C. In the case of `C(#Cc1ccc(OC2CCCCO2)cc1)CCNc1ncnc2ccccc12` (centres unmarked) [compound 156], the melting point is reported as 163 to 165 °C. `Fc1cc(Cl)ccc1C#CCCNc1ncnc2ccccc12` [compound 164] gave a melting point of 198 to 199 °C. For `N#Cc1c(F)cccc1C#CCCNc1ncnc2ccccc12` [compound 165], the melting point was 163 to 164 °C. Work on `Fc1ccc(C#CCCNc2ncnc3ccccc23)cc1F` [compound 166] yielded a melting point of 161 to 162 °C. Compound `Clc1cccc(C#CCCNc2ncnc3ccccc23)c1Cl` [compound 171] has a melting point of 175 to 176 °C. Work on `Clc1ccc(C#CCCNc2ncnc3ccccc23)c(Cl)c1` [compound 172] yielded a melting point of 182 to 183 °C. Work on `Clc1ccc(Cl)c(C#CCCNc2ncnc3ccccc23)c1` [compound 173] yielded a melting point of 176 to 177 °C. `Clc1cccc(Cl)c1C#CCCNc1ncnc2ccccc12` [compound 174] gave a melting point of 153 to 155 °C. For `Clc1ccc(C#CCCNc2ncnc3ccccc23)cc1Cl` [compound 175], the melting point was 147 to 148 °C. Compound `FC(F)(F)c1ccc(Cl)c(C#CCCNc2ncnc3ccccc23)c1` [compound 176] has a melting point of 144 to 145 °C. In the case of `COc1ccc(Cl)cc1C#CCCNc1ncnc2ccccc12` [compound 179], the melting point is reported as 147 to 149 °C. Compound `C(#Cc1ccc2ccccc2c1)CCNc1ncnc2ccccc12` [compound 183] has a melting point of 159 to 160 °C. Compound `Fc1cncc(C#CCCNc2ncnc3ccccc23)c1` [compound 193] has a melting point of 145 to 150 °C. For `Clc1ncccc1C#CCCNc1ncnc2ccccc12` [compound 195], the melting point was 168 to 170 °C. `FC(F)(F)c1ccc(C#CCCNc2ncnc3ccccc23)cn1` [compound 198] showed a melting point of 134 to 139 °C. In the case of `OCc1cnccc1C#CCCNc1ncnc2ccccc12` [compound 201], the melting point is reported as 182 to 186 °C. With `OCc1ccc(C#CCCNc2ncnc3ccccc23)cn1` [compound 202] the melting point was 183 to 185 °C. For `OCc1cc(C#CCCNc2ncnc3ccccc23)co1` [compound 209], the melting point was 135 to 147 °C. In the case of `CCOC(=O)c1cnc(C#CCCNc2ncnc3ccccc23)s1` [compound 213], the melting point is reported as 113 to 114 °C. With `CCOC(=O)c1sc(C#CCCNc2ncnc3ccccc23)nc1C` [compound 214] the melting point was 139 to 140 °C. `COc1cccc(Oc2nc(C#CCCNc3ncnc4ccccc34)cs2)c1` [compound 216] showed a melting point of 77 to 79 °C. `COc1ccc(Oc2nc(C#CCCNc3ncnc4ccccc34)cs2)cc1` [compound 217] showed a melting point of 150 to 152 °C. For `FC(F)(F)c1ccccc1Oc1nc(C#CCCNc2ncnc3ccccc23)cs1` [compound 218], the melting point was 159 to 161 °C. `FC(F)(F)c1cccc(Oc2nc(C#CCCNc3ncnc4ccccc34)cs2)c1` [compound 219] showed a melting point of 106 to 108 °C. `FC(F)(F)c1ccc(Oc2nc(C#CCCNc3ncnc4ccccc34)cs2)cc1` [compound 220] showed a melting point of 137 to 139 °C. `N#Cc1cccc(Oc2nc(C#CCCNc3ncnc4ccccc34)cs2)c1` [compound 222] showed a melting point of 137 to 139 °C. `N#Cc1ccc(Oc2nc(C#CCCNc3ncnc4ccccc34)cs2)cc1` [compound 223] gave a melting point of 55 to 57 °C. With `Fc1cccc(Oc2nc(C#CCCNc3ncnc4ccccc34)cs2)c1` [compound 225] the melting point was 134 to 136 °C. `CC(CC#Cc1cscn1)Nc1ncnc2ccccc12` (centres unmarked) [compound 291] gave a melting point of 142 to 145 °C. In the case of `FC(F)(F)c1ccccc1C#CCC(Nc1ncnc2ccccc12)c1ccccc1` (centres unmarked) [compound 302], the melting point is reported as 150 to 152 °C. `FC(F)(F)c1ccccc1C#CCCNc1ncnc2cc(Cl)ccc12` [compound 308] showed a melting point of 153 to 154 °C. For `COCc1ccccc1C#CCCNc1ncnc2ccc(I)cc12` [compound 322], the melting point was 121 to 123 °C. `COCc1ccccc1C#CCCNc1ncnc2c(Cl)cc(Cl)cc12` [compound 338] showed a melting point of 161 to 162 °C. Compound `Clc1ncnc(NCCC#Cc2ccccc2)c1Cl` [compound 357] has a melting point of 122 to 123 °C. With `Clc1cc(NCCC#Cc2ccccc2)ncn1` [compound 358] the melting point was 118 to 120 °C. Compound `Clc1ncnc(NCCC#Cc2ccccc2)c1Cc1ccccc1` [compound 372] has a melting point of 157 to 158 °C. Work on `C(#Cc1ccccc1)CCNc1ncnc2[nH]cnc12` [compound 378] yielded a melting point of 207 to 208 °C.
